Assay results as given in US20160068883A1, “MICRO-FLUIDIC MIXER AND METHOD OF DETERMINING PATHOGEN INACTIVATION VIA ANTIMICROBIAL SOLUTIONS” (The United States of America, as represented by the …, priority 2014, published 2016).
Where “and” joins values, the source holds several entries; their conditions need not be identical. Equal values may be shown once.

Assays:
E. coli O157:H7 = E. coli O157:H7 inactivation by free chlorine in the micro-fluidic mixer (MPN enumeration); format: cell-based, Escherichia coli O157:H7 (RM4406, ATCC 700728)
E. coli = test: Decimal reduction time (D-value) calculated from the Watson and Hom inactivation models; design: species or system Escherichia coli O157:H7
Excerpt: Kinetic modeling was also applied to simplify the complicated disinfection phenomena of produce wash system. Three models that are commonly used for studying bacterial disinfection kinetics with chemical-based disinfectant, including the Chick-Watson Model, the Hom Model, and the Selleck Model.
Watson developed an empirical logarithmic equation to relate the inactivation constant (k) to disinfectant concentration (C) and reaction time (t):
The Hom model is a generalized empirical equation of the Chick-Watson model considering chlorine disinfection as a pseudo first-order reaction:
The D-value here was calculated based on the empirical models developed in this study, namely the Watson model (equation 3) and the Hom model (equation 5). […] By increasing chlorine concentration to […], the D-value reduces to […] respectively.

## OCl [free chlorine, hypochlorous acid]
E. coli O157:H7; 1 mg/L free chlorine
  contact time to achieve a 5-log reduction: more than 1.2 second
E. coli O157:H7; 1.0 mg/L free chlorine, 0.25 second contact, suspension 1×10^8 CFU/mL
  log reduction of E. coli O157:H7: 0.14 log
E. coli O157:H7; 1.0 mg/L free chlorine, 1.00 second contact, suspension 1×10^8 CFU/mL
  log reduction of E. coli O157:H7: 4.97 log
E. coli O157:H7; 5 mg/L free chlorine
  contact time to achieve a 5-log reduction: 0.50 second
E. coli O157:H7; 10 mg/L free chlorine
  contact time to achieve a 5-log reduction: 0.25 second and 0.2 second
E. coli O157:H7; 10.0 mg/L free chlorine, 0.25 second contact
  log reduction of E. coli O157:H7: 5.77 log
E. coli O157:H7; 10 mg/L free chlorine, listed as chlorine
  contact time to achieve a 5-log reduction: 0.2 second
E. coli O157:H7; 20 mg/L free chlorine
  contact time to achieve a 5-log reduction: 0.25 second
E. coli O157:H7; chlorine 50 mg/L, pathogen solution 10^8 MPN/mL, without dechlorinating solution
  bacterial survival in collected effluent (total pathogen inactivation control): no bacterial survival detected
E. coli; 1 mg/L free chlorine
  D-value (decimal reduction time, 90% / one log reduction): 28.06 milliseconds
E. coli; chlorine 5 (so in the source)
  D-value (decimal reduction time, 90% / one log reduction): 5.72 milliseconds
E. coli; chlorine 10 (so in the source)
  D-value (decimal reduction time, 90% / one log reduction): 2.87 milliseconds
E. coli; chlorine 20 (so in the source)
  D-value (decimal reduction time, 90% / one log reduction): 1.43 milliseconds
